From the NIST ThermoML archive (doi:10.1021/je900600c)
Numbers after ± are expanded uncertainties.

How the values were obtained:
[1] = 101 kPa, Liquid; for electrical conductivity: Frequency=0.0005 MHz, crison conductivimeter
[2] = xn = mol fraction of the nth substance listed; details: 101 kPa, Liquid; for electrical conductivity: Frequency=0.0005 MHz, crison conductivimeter

CCn1cc[n+](C)c1.F[B-](F)(F)F [1-ethyl-3-methylimidazolium tetrafluoroborate]
[1]
Details | electrical conductivity [S/m] | viscosity [mPa·s]
288.15 K | – | 55.5 ± 1.4
298.15 K | 1.63 ± 0.16 | 36.9 ± 1.9
308.15 K | – | 26 ± 1.4
318.15 K | – | 19.17 ± 1

CCCCn1cc[n+](C)c1.F[B-](F)(F)F [1-butyl-3-methylimidazolium tetrafluoroborate]
[1]
Details | electrical conductivity [S/m] | viscosity [mPa·s]
288.15 K | – | 173.5 ± 47
298.15 K | 0.352 ± 0.035 | 99.2 ± 15
308.15 K | – | 61.3 ± 2.8
318.15 K | – | 40.4 ± 2.1

CCn1cc[n+](C)c1.F[B-](F)(F)F [1-ethyl-3-methylimidazolium tetrafluoroborate] + O
[2]
Details | electrical conductivity [S/m] | viscosity [mPa·s]
288.15 K, x2 = 0 | – | 55.5 ± 1.4
288.15 K, x2 = 0.0985 | – | 36.2 ± 1.9
288.15 K, x2 = 0.2191 | – | 23.88 ± 1.3
288.15 K, x2 = 0.3053 | – | 18.26 ± 0.98
288.15 K, x2 = 0.3982 | – | 13.26 ± 0.72
288.15 K, x2 = 0.4916 | – | 10.29 ± 0.57
288.15 K, x2 = 0.4933 | 4 ± 0.4 | –
288.15 K, x2 = 0.5989 | – | 7.28 ± 0.42
288.15 K, x2 = 0.6991 | – | 5.43 ± 0.33
288.15 K, x2 = 0.8029 | – | 3.18 ± 0.22
288.15 K, x2 = 0.8991 | – | 2.32 ± 0.18
298.15 K, x2 = 0 | 1.63 ± 0.16 | 36.9 ± 1.9
298.15 K, x2 = 0.0985 | – | 25.2 ± 1.3
298.15 K, x2 = 0.2191 | – | 16.66 ± 0.9
298.15 K, x2 = 0.3053 | – | 13.51 ± 0.74
298.15 K, x2 = 0.3665 | 4.1 ± 0.41 | –
298.15 K, x2 = 0.3982 | – | 10.02 ± 0.56
298.15 K, x2 = 0.4916 | – | 7.91 ± 0.46
298.15 K, x2 = 0.4933 | 5.26 ± 0.53 | –
298.15 K, x2 = 0.5498 | 6.07 ± 0.61 | –
298.15 K, x2 = 0.5989 | – | 5.62 ± 0.34
298.15 K, x2 = 0.6599 | 7.64 ± 0.76 | –
298.15 K, x2 = 0.6991 | – | 4.23 ± 0.27
298.15 K, x2 = 0.7332 | 8.15 ± 0.82 | –
298.15 K, x2 = 0.7856 | 8.44 ± 0.84 | –
298.15 K, x2 = 0.8029 | – | 2.5 ± 0.19
298.15 K, x2 = 0.8249 | 8.52 ± 0.85 | –
298.15 K, x2 = 0.8555 | 8.47 ± 0.85 | –
298.15 K, x2 = 0.8799 | 8.36 ± 0.84 | –
298.15 K, x2 = 0.8991 | – | 1.82 ± 0.15
298.15 K, x2 = 0.8999 | 8.18 ± 0.82 | –
298.15 K, x2 = 0.9166 | 7.9 ± 0.8 | –
298.15 K, x2 = 0.9307 | 7.43 ± 0.76 | –
298.15 K, x2 = 0.9428 | 7.1 ± 0.73 | –
298.15 K, x2 = 0.9533 | 6.56 ± 0.69 | –
298.15 K, x2 = 0.9625 | 6.13 ± 0.68 | –
298.15 K, x2 = 0.9706 | 5.43 ± 0.54 | –
298.15 K, x2 = 0.9778 | 4.76 ± 0.48 | –
298.15 K, x2 = 0.9842 | 4.03 ± 0.4 | –
298.15 K, x2 = 0.99 | 2.95 ± 0.3 | –
298.15 K, x2 = 0.9952 | 1.79 ± 0.18 | –
308.15 K, x2 = 0 | – | 26 ± 1.4
308.15 K, x2 = 0.0985 | – | 18.45 ± 0.99
308.15 K, x2 = 0.2191 | – | 12.64 ± 0.7
308.15 K, x2 = 0.3053 | – | 10.39 ± 0.58
308.15 K, x2 = 0.3982 | – | 7.85 ± 0.45
308.15 K, x2 = 0.4916 | – | 6.26 ± 0.37
308.15 K, x2 = 0.4933 | 5.9 ± 0.59 | –
308.15 K, x2 = 0.5989 | – | 4.49 ± 0.29
308.15 K, x2 = 0.6991 | – | 3.4 ± 0.23
308.15 K, x2 = 0.8029 | – | 2.03 ± 0.16
308.15 K, x2 = 0.8991 | – | 1.477 ± 0.14
318.15 K, x2 = 0 | – | 19.17 ± 1
318.15 K, x2 = 0.0985 | – | 14.01 ± 0.77
318.15 K, x2 = 0.2191 | – | 9.9 ± 0.56
318.15 K, x2 = 0.3053 | – | 8.23 ± 0.47
318.15 K, x2 = 0.3982 | – | 6.33 ± 0.38
318.15 K, x2 = 0.4916 | – | 5.09 ± 0.32
318.15 K, x2 = 0.4933 | 6.95 ± 0.7 | –
318.15 K, x2 = 0.5989 | – | 3.68 ± 0.25
318.15 K, x2 = 0.6991 | – | 2.81 ± 0.2
318.15 K, x2 = 0.8029 | – | 1.696 ± 0.15
318.15 K, x2 = 0.8991 | – | 1.2 ± 0.12

CCCCCCn1cc[n+](C)c1.F[B-](F)(F)F [1-hexyl-3-methylimidazolium tetrafluoroborate] + O
[2]
Details | electrical conductivity [S/m] | viscosity [mPa·s]
288.15 K, x2 = 0 | – | 357.5 ± 150
288.15 K, x2 = 0.1101 | – | 200.6 ± 60
288.15 K, x2 = 0.1679 | – | 151 ± 36
288.15 K, x2 = 0.2812 | – | 100.3 ± 15
288.15 K, x2 = 0.3581 | – | 65.4 ± 3.9
288.15 K, x2 = 0.4907 | 0.625 ± 0.063 | –
288.15 K, x2 = 0.4987 | – | 38.7 ± 2
288.15 K, x2 = 0.5075 | – | 36.4 ± 1.9
288.15 K, x2 = 0.573 | – | 29.4 ± 1.5
288.15 K, x2 = 0.72 | – | 17.55 ± 0.93
298.15 K, x2 = 0 | 0.126 ± 0.013 | 190.9 ± 55
298.15 K, x2 = 0.1101 | – | 113.9 ± 20
298.15 K, x2 = 0.1164 | 0.202 ± 0.02 | –
298.15 K, x2 = 0.1679 | – | 89.1 ± 11
298.15 K, x2 = 0.2364 | 0.337 ± 0.035 | –
298.15 K, x2 = 0.2812 | – | 61.6 ± 2.8
298.15 K, x2 = 0.3232 | 0.484 ± 0.049 | –
298.15 K, x2 = 0.3581 | – | 41.6 ± 2.1
298.15 K, x2 = 0.3942 | 0.627 ± 0.063 | –
298.15 K, x2 = 0.4548 | 0.798 ± 0.08 | –
298.15 K, x2 = 0.4907 | 0.983 ± 0.099 | –
298.15 K, x2 = 0.4987 | – | 25.5 ± 1.3
298.15 K, x2 = 0.5075 | – | 24 ± 1.3
298.15 K, x2 = 0.5294 | 1.06 ± 0.11 | –
298.15 K, x2 = 0.573 | – | 19.6 ± 1
298.15 K, x2 = 0.5896 | 1.31 ± 0.13 | –
298.15 K, x2 = 0.652 | 1.62 ± 0.16 | –
298.15 K, x2 = 0.7184 | 1.99 ± 0.2 | –
298.15 K, x2 = 0.72 | – | 10.82 ± 0.6
308.15 K, x2 = 0 | – | 110.3 ± 19
308.15 K, x2 = 0.1101 | – | 69.4 ± 5
308.15 K, x2 = 0.1679 | – | 56.2 ± 1.5
308.15 K, x2 = 0.2812 | – | 40.3 ± 2.1
308.15 K, x2 = 0.3581 | – | 28.1 ± 1.5
308.15 K, x2 = 0.4907 | 1.38 ± 0.14 | –
308.15 K, x2 = 0.4987 | – | 17.72 ± 0.95
308.15 K, x2 = 0.5075 | – | 16.76 ± 0.89
308.15 K, x2 = 0.573 | – | 13.83 ± 0.75
308.15 K, x2 = 0.72 | – | 7.76 ± 0.45
318.15 K, x2 = 0 | – | 68.5 ± 4.7
318.15 K, x2 = 0.1101 | – | 45.1 ± 2.3
318.15 K, x2 = 0.1679 | – | 37.5 ± 1.9
318.15 K, x2 = 0.2812 | – | 27.8 ± 1.4
318.15 K, x2 = 0.3581 | – | 19.89 ± 1.1
318.15 K, x2 = 0.4907 | 1.65 ± 0.17 | –
318.15 K, x2 = 0.4987 | – | 12.92 ± 0.7
318.15 K, x2 = 0.5075 | – | 12.25 ± 0.67
318.15 K, x2 = 0.573 | – | 10.19 ± 0.57
318.15 K, x2 = 0.72 | – | 5.85 ± 0.35

O [water] + CCn1cc[n+](C)c1.F[B-](F)(F)F
[2], x1 = 1
Details | viscosity [mPa·s]
288.15 K | 1.137 ± 0.12
298.15 K | 0.89 ± 0.11
308.15 K | 0.719 ± 0.098
318.15 K | 0.597 ± 0.092

CCCCCCn1cc[n+](C)c1.F[B-](F)(F)F [1-hexyl-3-methylimidazolium tetrafluoroborate]
[1]
Details | electrical conductivity [S/m] | viscosity [mPa·s]
288.15 K | – | 357.5 ± 150
298.15 K | 0.126 ± 0.013 | 190.9 ± 55
308.15 K | – | 110.3 ± 19
318.15 K | – | 68.5 ± 4.7

O [water]
[1]
Details | viscosity [mPa·s]
288.15 K | 1.137 ± 0.12
298.15 K | 0.89 ± 0.11
308.15 K | 0.719 ± 0.098
318.15 K | 0.597 ± 0.092
